Where a name gives a salt, the structure may show the parent alone.
Tests used:
[1] = test system: polyglutamine protein aggregation; settings: cited from earlier work
neurodegeneration = settings: in vivo; cited from earlier work
[2] = test system: cells that did not express 97Q-ADE2; assay: colony-color control on glucose media, cells that did not express 97Q-ADE2, 48-well microplate; format: cell-based, yeast; settings: 0, 1, 3 and 5 mM, FIG. 4 first row
Description: Plate preparation for colony-color assay was as following: 6.7 g of yeast nitrogen base lacking amino acids, 20 g of Bacto agar and 1.3 g of drop-out mix that contain amino acids supplement necessary for viable and selective growth of the transformed cells were added to 900 ml of H2O according to Burke et al. (Burke et al., Methods in Yeast Genetics, 2000 Edition, Gold Spring Harbor Laboratory Press, 171-175). Carbon source, either glucose or galactose, and filter-sterilized adenine were added after autoclaving to final concentrations of 2% and 4 mg/l, respectively. For preparation of media containing guanidine hydrochloride, the chemical reagent was added simultaneously with carbon source and adenine to final concentrations of […] as indicated. There were about 20 ml of medium in each 10 cm petri dish and 0.2 ml of medium in each well of 48-well microplate.
For the purpose of drug screening, small volume of medium for examining the colony color phenotype of cells has advantage in saving the amount of candidate compound tested. […] With glucose or galactose as carbon source, the transformed cells were grown on adenine low media containing guanidine hydrochloride at a final concentration of 0, 1, 3 and 5 mM as indicated. […]

Hsp104p = biological target: T1, Hsp104p (Saccharomyces cerevisiae, UniProt P31539); settings: 3-5 mM; cited from earlier work
T1 construct: cellular Hsp104p is required for two similar types of protein aggregation in yeast cells; host or cells: yeast cells (endogenous Hsp104p)

97Q-ADE2 [3] = assay: filter trap assay on cellulose acetate membrane for 97Q-ADE2 aggregates; format: cell-based, yeast
Description: Therefore, this unique physical characteristic of the aggregates could be detected biochemically using a filter trap assay in which only proteins with size more than 0.2 micrometers retain on a cellulose acetate membrane (Scherzinger et al., 1997, Cell 90, 549-558). In order to validate the colony-color phenotypes observed in the genetic experiments were caused by the formation of ADE2 protein aggregates, cell lysates were prepared and subjected to filter trap assays.
The experimental procedures for slot-blot assay were following: Nitrocellulose (NC) membrane was pre-wetted with TBS (20 mM Tris, 500 mM NaCl), then assembled into Bio-Dot apparatus (BIO-RAD) in which 3 filter papers (BIO-RAD) were on the bottom as a support and NC membrane was on the top. After assembly of the Bio-Dot apparatus, 200 μl TBS buffer was added into each loading well to rinse the membrane followed by the addition of diluted cell lysate (3 μl prepared cell lysate mixed with 197 μl TBS buffer). When the lysate has completely drained from the apparatus by gravity, 200 μl TBS buffer was loaded again to reduce residual proteins within the loading well. Following the step of TBS wash, 200 μl TTBS (20 mM Tris, 500 mM NaCl, and 0.05% Tween 20) was applied as washing buffer and the solution was sucked out by vacuum pump. The membrane was subjected to TTBS wash twice followed by removal of the membrane from the Bio-Dot apparatus and detection of trapped proteins by Western blotting. […] The signal for the immuno-blotting was detected by enhanced chemiluminescence (ECL) reagents. […]
In order to confirm the change of phenotype observed was caused by the alteration of protein solubility, the combination of filter trap and slot blot assays was applied for detecting the level of polyglutamine protein aggregates within these cells. […] Thus, the reduction of polyglutamine protein aggregation caused by Hsp104p inhibitor was tightly associated with the change of cellular phenotype and could be visibly detected by the colony color system.

97Q-ADE2 [4] = assay: colony-color assay of yeast cells expressing 97Q-ADE2 on adenine low medium; format: cell-based
25Q-ADE2 = assay: colony-color assay of yeast cells expressing 25Q-ADE2 on adenine low medium; format: cell-based; settings: guanidine hydrochloride 0, 1, 3 and 5 mM; 10-cm Petri dish; FIG. 3(A)

T1 sequence (P31539 whole entry): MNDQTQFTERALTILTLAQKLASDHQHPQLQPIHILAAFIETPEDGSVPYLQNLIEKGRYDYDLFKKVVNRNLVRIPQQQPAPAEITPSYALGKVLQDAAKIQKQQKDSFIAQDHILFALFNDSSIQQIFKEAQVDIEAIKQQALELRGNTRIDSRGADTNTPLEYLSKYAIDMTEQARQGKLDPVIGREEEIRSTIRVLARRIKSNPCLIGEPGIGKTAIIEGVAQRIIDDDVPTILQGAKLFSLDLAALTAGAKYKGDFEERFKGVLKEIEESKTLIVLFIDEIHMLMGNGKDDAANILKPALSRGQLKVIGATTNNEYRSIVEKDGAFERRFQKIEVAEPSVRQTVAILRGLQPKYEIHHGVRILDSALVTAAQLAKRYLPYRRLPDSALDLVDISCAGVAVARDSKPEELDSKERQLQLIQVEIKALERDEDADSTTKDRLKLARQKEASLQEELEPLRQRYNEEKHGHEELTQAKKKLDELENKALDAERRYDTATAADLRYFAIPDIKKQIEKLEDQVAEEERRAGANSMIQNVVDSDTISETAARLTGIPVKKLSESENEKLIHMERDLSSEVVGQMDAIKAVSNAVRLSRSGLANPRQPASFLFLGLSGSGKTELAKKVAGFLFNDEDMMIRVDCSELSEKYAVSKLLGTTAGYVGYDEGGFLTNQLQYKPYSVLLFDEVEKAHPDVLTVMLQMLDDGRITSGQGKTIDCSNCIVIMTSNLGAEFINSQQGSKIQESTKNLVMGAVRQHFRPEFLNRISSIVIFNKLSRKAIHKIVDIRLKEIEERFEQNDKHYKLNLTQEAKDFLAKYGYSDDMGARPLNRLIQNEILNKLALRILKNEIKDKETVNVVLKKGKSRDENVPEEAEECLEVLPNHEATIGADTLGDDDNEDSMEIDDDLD

Row | SMILES | polyglutamine protein aggregation [1] | neurodegeneration in an animal model (neurodegeneration) | colony color of cells that did not express 97Q-ADE2 [2] | activity of Hsp104p (Hsp104p) | 97Q-ADE2 fusion protein trapped on cellulose acetate membrane (97Q-ADE2 [3]; 1 mM, FIG. 3(B) lane 3) | 97Q-ADE2 fusion protein trapped on cellulose acetate membrane (97Q-ADE2 [3]; 3 mM, continuous treatment, FIG. 3(B) lane 4) | 97Q-ADE2 fusion protein trapped on cellulose acetate membrane (97Q-ADE2 [3]; 5 mM, continuous treatment, FIG. 3(B) lane 5) | cellular color of 97Q-ADE2 expressing cells (97Q-ADE2 [4]; 0, 1, 3 and 5 mM, 48-well microplate, galactose, FIG. 4 second row) | appearance of colony color, 97Q-ADE2 versus 25Q-ADE2 cells (97Q-ADE2 [4]; 5 mM, 10-cm Petri dish) | cellular color phenotype of cells expressing 97Q-ADE2 (97Q-ADE2 [4]; guanidine hydrochloride 0, 1, 3 and 5 mM, adenine low media, 10-cm Petri dish, FIG. 3(A)) | colony color of cells expressing 25Q-ADE2 (25Q-ADE2)
1 | C[C@@H](N)[C@H]1CC[C@H](C(=O)Nc2ccncc2)CC1 [Y-27632] | diminished polyglutamine protein aggregation | reduced neurodegeneration |  |  |  |  |  |  |  |  | 
2 | N=C(N)N [guanidine hydrochloride] |  |  | the cellular phenotype remained the same | substantially reduces the activity of Hsp104p | significant amount of the fusion protein was trapped | little | no signal | changed their cellular colors from red to white | indistinguishable between cells expressing 25Q-ADE2 and 97Q-ADE2 | changed from red to pink and white as a function of guanidine hydrochloride concentration | constantly showed colony color of white
